Assay results as given in ChEMBL document CHEMBL1139921, “Synthesis and biological activity of 2-alkylbenzimidazoles bearing a N-phenylpyrrole moiety as novel angiotensin II AT1 receptor antagonists” (Bioorg Med Chem Lett, 2007).
Calls of active or inactive are those of the source. The rule behind the calls is not given here.

How the values were obtained:
[1] = biological target: T1, Type-1 angiotensin II receptor (Bos taurus, UniProt P25104); assay: Displacement of [125I]angiotensin-2 from bovine adrenal cortex AT1 receptor; assay type: tissue-based
T1 sequence (P25104 whole entry): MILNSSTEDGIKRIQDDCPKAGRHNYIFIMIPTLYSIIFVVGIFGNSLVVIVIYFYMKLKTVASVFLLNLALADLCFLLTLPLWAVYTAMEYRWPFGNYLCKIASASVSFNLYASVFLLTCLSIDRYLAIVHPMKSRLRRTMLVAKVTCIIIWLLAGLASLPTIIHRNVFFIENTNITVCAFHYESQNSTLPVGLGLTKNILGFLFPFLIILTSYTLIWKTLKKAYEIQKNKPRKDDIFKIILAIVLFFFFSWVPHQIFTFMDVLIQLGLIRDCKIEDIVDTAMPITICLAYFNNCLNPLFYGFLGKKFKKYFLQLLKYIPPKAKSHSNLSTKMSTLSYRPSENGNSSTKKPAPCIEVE

[2] = biological target: T2, Type-1 angiotensin II receptor (Oryctolagus cuniculus, UniProt P34976); assay: Antagonist activity at AT1 receptor assessed inhibition of angiotensin-2-induced contraction of rabbit thoracic aortic rings; assay type: functional; settings: read-out: pA2 (converted)
T2 sequence (P34976 whole entry): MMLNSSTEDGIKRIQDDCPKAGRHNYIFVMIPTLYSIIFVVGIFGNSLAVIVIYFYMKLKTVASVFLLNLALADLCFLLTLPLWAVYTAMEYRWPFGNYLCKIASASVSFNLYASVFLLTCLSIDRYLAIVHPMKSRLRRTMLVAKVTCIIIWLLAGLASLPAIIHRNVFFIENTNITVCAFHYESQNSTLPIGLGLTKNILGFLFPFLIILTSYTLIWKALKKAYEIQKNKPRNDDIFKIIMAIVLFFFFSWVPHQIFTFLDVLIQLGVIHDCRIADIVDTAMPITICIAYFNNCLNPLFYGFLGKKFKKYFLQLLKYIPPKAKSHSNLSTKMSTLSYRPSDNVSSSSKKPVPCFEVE

[3] = biological target: T3, Type-1 angiotensin II receptor (Oryctolagus cuniculus) (UniProt P34976); assay: Antagonist activity at AT1 receptor assessed inhibition of norepinephrine-induced contraction of rabbit thoracic aortic rings; assay type: functional
T3 sequence (whole entry): T2 sequence (P34976 whole entry)

[4] = biological target: T3, Type-1 angiotensin II receptor (Oryctolagus cuniculus); assay: Antagonist activity at AT1 receptor assessed inhibition of KCl-induced contraction of rabbit thoracic aortic rings; assay type: functional
[5] = biological target: T3, Type-1 angiotensin II receptor (Oryctolagus cuniculus); assay: Antagonist activity at AT1 receptor assessed inhibition of histamine-induced contraction of rabbit thoracic aortic rings; assay type: functional
Rattus norvegicus [6] = assay: Inhibition of angiotensin-2-induced pressor response in normotensive rat at 1 mg/kg, po; assay type: functional, organism-based; design: dose 1 mg/kg
Rattus norvegicus [7] = assay: Decrease in mean arterial pressure in po dosed spontaneously hypertensive rat; assay type: functional, organism-based; settings: Artery
Rattus norvegicus [8] = assay: Reduction of mean arterial pressure in spontaneously hypertensive rat at 1 mg/kg, po; assay type: functional, organism-based; design: dose 1 mg/kg; settings: Artery

Molecule `CCCc1nc2cccc(C(=O)OC)c2n1Cc1ccc(-n2cccc2-c2nnn[nH]2)cc1` has an IC50 [1] of 32 nM and a Kb [2] of 12.6 nM.
`CCCCc1nc2cccc(C(=O)OC)c2n1Cc1ccc(-n2cccc2-c2nnn[nH]2)cc1` was tested, and the IC50 [1] was 9.8 nM, the Kb [2] was 3.98 nM and the Activity [3] was “inactive”. For the same molecule, the Activity [4] was “inactive”, the Activity [5] was “inactive” and the Activity (Rattus norvegicus [6]) was “Active”. The Activity (Rattus norvegicus [7]) was “Dose-dependent effect” and the Activity (Rattus norvegicus [8]) was “Active”.
For `CCc1nc2cccc(C(=O)O)c2n1Cc1ccc(-n2cccc2C(=O)O)cc1`, the IC50 [1] was 160 nM and the Kb [2] was 316 nM.
In the case of `Cc1nc2cccc(C(=O)O)c2n1Cc1ccc(-n2cccc2C(=O)O)cc1`, the IC50 [1] is reported as 250 nM and the Kb [2] is reported as 1260 nM.
Molecule `CCc1nc2cccc(C(=O)OC)c2n1Cc1ccc(-n2cccc2-c2nnn[nH]2)cc1` has an IC50 [1] of 140 nM and a Kb [2] of 31.6 nM.
`CCCc1nc2cccc(C(=O)OCC)c2n1Cc1ccc(-n2cccc2-c2nnn[nH]2)cc1` showed an IC50 [1] of 41 nM and a Kb [2] of 79.4 nM.
With `CCCCc1nc2cccc(C(=O)O)c2n1Cc1ccc(-n2cccc2C(=O)O)cc1` the IC50 [1] was 33 nM and the Kb [2] was 10 nM.
`CCCCc1nc2cccc(C(=O)OCC)c2n1Cc1ccc(-n2cccc2-c2nnn[nH]2)cc1` was tested, and the IC50 [1] was 19 nM and the Kb [2] was 15.8 nM.
Work on `CCCc1nc2cccc(C(=O)O)c2n1Cc1ccc(-n2cccc2C(=O)O)cc1` yielded an IC50 [1] of 92 nM and a Kb [2] of 100 nM.
With `CCCCc1nc2cccc(C(=O)O)c2n1Cc1ccc(-n2cccc2-c2nnn[nH]2)cc1` the IC50 [1] was 6.9 nM, the Kb [2] was 3.16 nM and the Activity [3] was “inactive”. For the same molecule, the Activity [4] was “inactive”, the Activity [5] was “inactive” and the Activity (Rattus norvegicus [6]) was “Active”. For the same molecule, the Activity (Rattus norvegicus [7]) was “Dose-dependent effect” and the Activity (Rattus norvegicus [8]) was “Active”.
Work on `CCCc1nc2cccc(C(=O)O)c2n1Cc1ccc(-n2cccc2-c2nnn[nH]2)cc1` yielded an IC50 [1] of 16 nM and a Kb [2] of 6.31 nM.
`COC(=O)c1cccc2nc(C)n(Cc3ccc(-n4cccc4-c4nnn[nH]4)cc3)c12` showed an IC50 [1] of 200 nM and a Kb [2] of 100 nM.
